According to PubChem BioAssay AID1963852 (Molecular Pharmacology Branch, DTP, NCI, 2024):
Several values for one entry are separate records, joined by “and”; a condition that tells them apart may be missing. Equal entries are not always repeated.

System: 282377-053-R-J1-PDC complex spheroid viability
Assay: Anticancer human tumor 282377-053-R-J1-PDC patient-derived colon adenocarcinoma cell line growth inhibition [POLQ]
Conditions: for viability, T/C: stronger effect = lower value
Description: Multicellular complex tumor spheroid response to Polymerase (POL) inhibitors (novobiocin, ART-558, RP6685) in combination with a variety of drugs and investigational agents in selected tumor cell lines
The POL inhibitors (novobiocin, ART-558, and RP6685) were evaluated both individually and in combination with standard of care and investigational anticancer small molecules within a complex spheroid model of solid tumors. . Complex spheroids include a stromal component modeled by human endothelial cells (HUVEC) and fibroblasts modeled by human mesenchymal stem cells (MSCs). The concentration ranges selected for each drug and investigational agent were based upon clinically achievable concentrations if the clinical Cmax of the agent was known.
Compounds. The drugs and investigational agents: novobiocin (NSC847541), ART-558 (NSC835418), RP-6685 (NSC848927), peposertib (NSC802822), ceralasertib (NSC780249), elimusertib (NSC800525), camonsertib (NSC841442), AZD-1390 (NSC803789), olaparib (NSC753686), talazoparib (NSC767125), rucaparib (NSC756644), sotorasib (NSC818433), MRTX-1133 (NSC836407), SN-38 (NSC673596), topotecan (NSC609699), epotoside (NSC141540), doxorubicin (NSC123127), gemcitabine (NSC613327), 5-fluorouracil (NSC19893), paclitaxel (NSC125973), vemurafenib (NSC761431), MSA-2 (NSC828583), SN-011 (NSC837082), adavosertib (NSC754352), prexasertib (NSC758257), carboplatin (NSC241240) and oxaliplatin (NSC266046), were obtained from the National Cancer Institute (NCI) Developmental Therapeutics Program Chemical Repository (21). The FDA-approved anticancer drug set is available from the Developmental Therapeutics Program at https://dtp.cancer.gov/organization/dscb/obtaining/. […] The stock solutions were prepared in dimethyl sulfoxide (DMSO, Sigma-Aldrich, St. Louis, MO, cat. D2650), except for the platinum compounds which were prepared in saline (Quality Biological, Gaithersburg, MD, cat. 114-055-101), at 800-fold the tested concentration and stored at -70 degrees C prior to their use. All drugs and investigational agents were tested over a range starting from a high concentration at or near the clinical Cmax and decreasing in half-log increments. If the clinical Cmax for an agent had not been determined, the highest concentration tested was 10 microM, except for SN-38, which was tested at a high concentration of 1 microM.
Cell Culture. All cells were maintained in an incubator at 37 degrees C and 5% CO2 with 95% humidity. The PDC lines were cultured according to standard operating procedures established by the NCI PDMR (https://pdmr.cancer.gov). Table 3 of the manuscript, lists the cell lines along with the number of the three cell types plated to form the mct-spheroids and media for tumor cell growth. After thawing, all PDC lines, except 997537-175-T-J1-PDC and 415267-285-R-J2-PDC, were cultured in Matrigel-coated flasks prepared with a working solution of 1X Ham's F-12 nutrient mix, without supplementation (Thermo Fisher Scientific, cat. 11765054), 100 U/mL penicillin-streptomycin (Thermo Fisher Scientific, cat. 15140122), and 2.5% Matrigel (Corning Inc., Corning, NY, cat. 354248) for the first three passages. The two PDC lines 997537-175-T-J1-PDC and 415267-285-R-J2-PDC were cultured on uncoated flasks. The 857933-349-R-J2-PDC line was cultured in 6C/Colon 1B media containing advanced DMEM/F-12 (Thermo Fisher Scientific, cat. 12634028), 10 mM HEPES (Thermo Fisher Scientific, cat. 15630080), 1X GlutaMAX supplement (Thermo Fisher Scientific, cat. 35050061), 0.1 mg/mL primocin (InvivoGen, San Diego, CA, cat. ant-pm-2), 10% defined fetal bovine serum, heat inactivated (HyClone Laboratories Inc., Logan, UT, cat. SH30070.03HI), 50% L-WRN conditioned media (ATCC, cat. CRL-3276), 1.25 mM N-Acetyl-L-cysteine (Sigma-Aldrich, cat. A9165), 10 mM nicotinamide (Sigma-Aldrich, cat. N0636), 1X B-27 supplement (Thermo Fisher Scientific, cat. 17504044), 1X N-2 supplement (Thermo Fisher Scientific, cat. […]

[1] = compound alone, run of 11/06/2023
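Further: spheroids exposed to compounds for seven days.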
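Wherever viability, T/C is given: 100% = DMSO vehicle control viability.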

| SMILES | viability, T/C (compound 0.1 µM) | IC50 (compound alone, run of 10/31/2023) | IC50 [1] | viability, T/C (compound 0.000316 µM) | viability, T/C (compound 0.001 µM) | viability, T/C (compound 0.00316 µM) | viability, T/C (compound 0.01 µM) | viability, T/C (compound 0.0316 µM) | IC50 (curve of compound) | viability, T/C (compound 1 µM) | viability, T/C (compound 3.16 µM) | viability, T/C (compound 10 µM) | viability, T/C (compound 0.316 µM) |
| --- | --- | --- | --- | --- | --- | --- | --- | --- | --- | --- | --- | --- | --- |
| Cc1cccc(N(C)C(=O)C2C(O)CCN2c2nc(C)cc(C(F)(F)F)c2C#N)c1 (configuration not stated) | 105% [middle of 13 runs] | > 10 µM | > 10 µM |  |  |  |  |  |  |  |  |  |  |
| Cn1ncnc1[C@H]1c2n[nH]c(=O)c3cc(F)cc(c23)N[C@@H]1c1ccc(F)cc1 | 90.5% and 95.2% and 106% |  |  | 97.4% and 91% and 104% | 95.4% and 95.3% and 93.1% | 76.2% and 90.7% and 93.6% | 108% (2×) and 102% | 110% and 98.3% and 105% | > 0.1 µM |  |  |  |  |
| Nc1ccc(C#CCN(C(=O)Cc2ncc(C(F)(F)F)cc2C(F)(F)F)c2ccc(F)cc2)nn1 |  |  | > 10 µM |  |  |  |  | 92.4% [middle of 13 runs] |  | 99.5% [middle of 12 runs] | 102% [middle of 13 runs] | 114% [middle of 13 runs] |  |
| Nc1ccn(C2OC(CO)C(O)C2(F)F)c(=O)n1 (configuration not stated) | 45.1% and 88.6% and 54.5% |  |  |  |  |  |  | 74% and 105% and 75.7% |  | 23.5% and 84.4% and 33.9% | 23.9% and 84% and 18.8% | 13.4% and 71.6% and 11.1% | 30.1% and 97.8% and 29.1% |
| O=C(Nc1ccc(O)c(NS(=O)(=O)c2ccc(F)cc2)c1)c1ccc(-c2ccccc2)cc1 | 98.8% and 86.6% and 102% |  |  |  |  |  |  | 110% and 91.2% and 91.8% | > 10 µM | 113% and 95.5% and 102% | 116% and 112% and 121% | 116% (2×) and 109% | 108% and 92.9% and 112% |
| O=C(c1cc(Cc2n[nH]c(=O)c3ccccc23)ccc1F)N1CCN(C(=O)C2CC2)CC1 | 94.5% and 97.4% and 107% |  |  |  |  |  |  | 96.2% and 95.6% and 96.1% | > 10 µM | 122% and 110% and 114% | 100% and 97.5% and 110% | 95.8% and 105% and 110% | 118% and 105% and 95.8% |
| O=c1[nH]cc(F)c(=O)[nH]1 | 109% and 108% and 95% |  |  |  |  |  |  | 91.8% and 103% and 97.7% | > 10 µM | 96.3% and 108% and 78.9% | 68.2% and 98.1% and 75.9% | 71% and 93.2% and 71.8% | 86.7% and 107% and 114% |
